The target in this experiment is T1, STAT6 (Homo sapiens, UniProt P42226).
T1 construct: These cells express endogenous STAT6; host or cells: HeLa LgBiT clone 4.14 (CRISPR knock-in of HiBiT into the endogenous STAT6 gene)
T1 sequence (P42226 1-847): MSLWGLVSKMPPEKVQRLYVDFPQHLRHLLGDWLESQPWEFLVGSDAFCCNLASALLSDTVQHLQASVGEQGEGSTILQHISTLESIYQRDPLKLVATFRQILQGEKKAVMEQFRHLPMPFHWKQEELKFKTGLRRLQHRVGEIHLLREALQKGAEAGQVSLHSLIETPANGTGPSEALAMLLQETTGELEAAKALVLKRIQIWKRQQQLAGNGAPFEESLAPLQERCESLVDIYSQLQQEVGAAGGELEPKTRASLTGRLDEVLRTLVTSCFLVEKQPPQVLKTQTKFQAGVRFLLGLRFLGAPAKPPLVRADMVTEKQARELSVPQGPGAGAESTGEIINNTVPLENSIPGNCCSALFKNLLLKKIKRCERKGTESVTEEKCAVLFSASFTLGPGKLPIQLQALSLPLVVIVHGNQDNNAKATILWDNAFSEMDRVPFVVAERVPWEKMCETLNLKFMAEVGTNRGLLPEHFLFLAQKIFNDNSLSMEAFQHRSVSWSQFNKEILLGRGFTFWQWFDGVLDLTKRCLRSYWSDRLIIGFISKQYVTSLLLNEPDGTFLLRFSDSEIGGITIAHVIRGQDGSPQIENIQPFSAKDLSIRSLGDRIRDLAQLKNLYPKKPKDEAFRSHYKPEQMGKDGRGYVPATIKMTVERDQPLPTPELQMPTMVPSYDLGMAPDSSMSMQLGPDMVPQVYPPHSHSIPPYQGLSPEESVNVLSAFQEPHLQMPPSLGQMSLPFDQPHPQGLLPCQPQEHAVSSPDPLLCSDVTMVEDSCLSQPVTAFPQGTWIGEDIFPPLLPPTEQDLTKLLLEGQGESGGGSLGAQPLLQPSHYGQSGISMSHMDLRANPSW
Description: STAT6 Degrader Assay (HiBiT based, HeLa LgBiT clone 4.14 cells). In kind it is cell-based. To be noted: for DC50: geometric mean across assay runs and compound batches, DC50 provided for test compounds with >80% Emax, read-out: STAT6 degradation DC50; for Emax: HeLa, maximal STAT6 degradation. The procedure:
This was a HiBit based assay. A HeLa cell line stably transfected with a small protein, LgBit (Large Bit) was obtained from Promega. These cells express endogenous STAT6. A small 11 amino acid gene sequence (HiBiT) was inserted in the STAT6 gene using CRISPR technology. Once STAT6 protein is expressed in the cells, the HiBiT sequence will bind the LgBit in the cells resulting in a functional NanoBiT protein, giving a luminescent tag to STAT6. Single cell clones were prepared and the clone 4.14 was selected for the assay based on that clone showing high luminescence, high STAT6 phosphorylation upon stimulation with IL-4, and inhibition of luminescence when cells were treated with STAT6 siRNA. HeLa LgBiT clone 4.14 cells were suspended in DMEM with 10% FCS, 1% Pen/Strep, Na-pyrovate and Hygromycin B, at a concentration of 1.25*105 cells pr mL. 5000 cells were added pr well of a 384 well plate and 20 nL of compound was added by Echo® liquid handler. NN6394A (terfenadine, a toxic compound) was added to control wells at 50 μM concentration to establish the assay window. In these wells the cells are dead which equals 100% degradation of STAT6. After 4-24 h of incubation at 37° C. under 5% CO2/95% air, 5 μL substrate (Nano-GLO®) was added to the wells and the plates were centrifuged and incubated for 0.5 h. The luminescence in the wells as a measure of non-degraded STAT6 was measured in a plate reader (BMG Pherastar FSX). The measured DC50 (in nM) was determined.

Molecules are shown by their SMILES.

`CNc1ccn(-c2ccnc3c2cc([C@H](C)N2CC=C(c4c(C)cc(C(=O)N5CCC(CN6CCN(c7ccc(NC8CCC(=O)NC8=O)cc7F)C[C@H]6C)CC5)cc4F)CC2)n3C)c(=O)c1` (stereo partly drawn) [Example 2g46, 3-((3-fluoro-4-((R)-4-((1-(3-fluoro-5-methyl-4-(1-((S)-1-(1-methyl-4-(4-(methyl-amino)-2-oxopyridin-1(2H)-yl)-1H-pyrrolo[2,3-b]pyridin-2-yl)ethyl)-1,2,3,6-tetrahydro-pyridin-4-yl)benzoyl)piperi-din-4-yl)methyl)-3-methyl-piperazin-1-yl)phenyl)amino)-piperidine-2,6-dione]: the DC50 (commonly the concentration giving 50% degradation) was 3.1 nM. Same read-out and setting: the figure for `COc1cc(C2CCN(Cc3cc4n(n3)CCN(C(=O)c3ccc(C5CCN([C@@H](C)c6cc7c(-n8ccc9c(c8=O)CCN9)ccnc7n6C)CC5)cc3)C4)CC2)ccc1NC1CCC(=O)NC1=O` (stereo partly drawn) [Example 2g30, 3-((2-methoxy-4-(1-((5-(4-(1-((S)-1-(1-methyl-4-(4-oxo-1,2,3,4-tetrahydro-5H-pyrrolo [3,2-c]pyridin-5-yl)-1H-pyrrolo[2,3-b]pyridin-2-yl)-ethyl)piperidin-4-yl)benzoyl)-4,5,6,7-tetrahydropyrazolo [1,5-a]pyrazin-2-yl)methyl)-piperidin-4-yl)phenyl)amino)-piperidine-2,6-dione] is 2.6 nM. For `CNc1ccn(-c2ccnc3c2cc(CN2CC=C(c4c(C)cc(C(=O)N5CCC(CN6CCN(c7ccc(N[C@H]8CCC(=O)NC8=O)cc7F)CC6)CC5)cc4F)CC2)n3C)c(=O)c1` (single isomer, unassigned) [Example 2g55], the Emax (commonly the maximal effect, on the per cent scale that the assay sets) lay in the range of 70 to 80%. For the compound `CNc1cc(=O)n(-c2ccnc3c2cc([C@H](C)N2CC=C(c4c(C)cc(C(=O)N5CCC(CN6CCN(c7ccc(N[C@H]8CCC(=O)NC8=O)cc7F)CC6)CC5)cc4F)CC2)n3C)cc1F` (single isomer, unassigned) [Example 2g92], the DC50 was 5.9 nM.

As for `CNc1ccn(-c2ccnc3c2cc([C@H](C)N2CC=C(c4c(C)cc(C(=O)N5CCC(CN6CCN(c7ncc(NC8CCC(=O)NC8=O)cc7F)CC6)CC5)cc4F)CC2)n3C)c(=O)c1` (stereo partly drawn) [Example 2g13, 3-((5-fluoro-6-(4-((1-(3-fluoro-5-methyl-4-(1-((S)-1-(1-methyl-4-(4-(methyl-amino)-2-oxopyridin-1(2H)-yl)-1H-pyrrolo[2,3-b]pyridin-2-yl)ethyl)-1,2,3,6-tetrahydro-pyridin-4-yl)benzoyl)piperi-din-4-yl)methyl)piperazin-1-yl)pyridin-3-yl)amino)piperi-dine-2,6-dione], the Emax lay within 20 to 30%.

Turning to `CNc1cc(=O)n(-c2ccnc3c2cc([C@H](C)N2CC=C(c4c(C)cc(C(=O)N5CCC(CN6CCN(c7ccc(N[C@@H]8CCC(=O)NC8=O)cc7F)CC6)CC5)cc4F)CC2)n3C)cc1F` (single isomer, unassigned) [Example 2g93], the DC50 turned out to be 7.2 nM. Same read-out and setting: the figure for `CNc1cc(=O)n(-c2ccnc3c2cc([C@H](C)N2CC=C(c4c(C)cc(C(=O)N5CCC(CN6CCN(c7ccc(N[C@H]8CCC(=O)NC8=O)cc7F)C[C@H]6C)CC5)cc4F)CC2)n3C)cc1F` (single isomer, unassigned) [Example 2g29] is 3.6 nM; for `CNc1cc(=O)n(-c2ccnc3c2cc([C@H](C)N2CC=C(c4c(C)cc(C(=O)N5CCC(CN6CCN(c7ccc(NC8CCC(=O)NC8=O)cc7F)C[C@H]6C)CC5)cc4F)CC2)n3C)cc1F` (stereo partly drawn) [Example 2g27, 3-((3-fluoro-4-((R)-4-((1-(3-fluoro-4-(1-((S)-1-(4-(5-fluoro-4-(methylamino)-2-oxopyridin-1(2H)-yl)-1-meth-yl-1H-pyrrolo[2,3-b]pyridin-2-yl)ethyl)-1,2,3,6-tetrahydro-pyridin-4-yl)-5-methylbenz-oyl)piperidin-4-yl)methyl)-3-methylpiperazin-1-yl)phenyl)-amino)piperidine-2,6-dione] it is 4.2 nM; for `CNc1ccn(-c2ccnc3c2cc([C@H](C)N2CCC(c4c(C)cc(C(=O)N5CCC(CN6CCN(c7ccc(N[C@@H]8CCC(=O)NC8=O)cc7F)CC6)CC5)cc4F)CC2)n3C)c(=O)c1` (single isomer, unassigned) [Example 2g44] it is 12.2 nM. On the same count and under the same terms, the figure for `CNc1ccn(-c2ccnc3c2cc([C@H](C)N2CC=C(c4c(C)cc(C(=O)N5CCC(CN6CCN(c7ccc(N[C@H]8CCC(=O)NC8=O)cc7F)C[C@H]6C)CC5)cc4F)CC2)n3C)c(=O)c1` (single isomer, unassigned) [Example 2g48] is 2.4 nM; for `CNc1ccn(-c2ccnc3c2cc([C@H](C)N2CC=C(c4c(C)cc(C(=O)N5CCn6nc(CN7CCC(c8ccc(N[C@H]9CCC(=O)NC9=O)cc8F)CC7)cc6C5)cc4F)CC2)n3C)c(=O)c1` (single isomer, unassigned) [Example 2g16] it is 0.2 nM; for `CNc1ccn(-c2ccnc3c2cc(CN2CC=C(c4c(C)cc(C(=O)N5CCC(CN6CCN(c7ccc(NC8CCC(=O)NC8=O)cc7F)CC6)CC5)cc4F)CC2)n3C)c(=O)c1` (centres unmarked) [Example 2g54, 3-((3-fluoro-4-(4-((1-(3-fluoro-5-methyl-4-(1-((1-methyl-4-(4-(methylamino)-2-oxopyridin-1(2H)-yl)-1H-pyrrolo[2,3-b]pyridin-2-yl)-methyl)-1,2,3,6-tetrahydro-pyridin-4-yl)benzoyl)piperi-din-4-yl)methyl)piperazin-1-yl)phenyl)amino)piperidine-2,6-dione] it is 7.3 nM. For `Cc1cc(C(=O)N2CCC(CN3CCN(c4ccc(N[C@@H]5CCC(=O)NC5=O)cc4F)CC3)CC2)cc(F)c1C1=CCN([C@@H](C)c2cc3c(-n4ccc5c(c4=O)CCN5)ccnc3n2C)CC1` (single isomer, unassigned) [Example 2g20], the DC50 turned out to be 6.9 nM. Same read-out and setting: the same measure for `Cc1cc(C(=O)N2CCC(CN3CCN(c4ccc(NC5CCC(=O)NC5=O)cc4F)C[C@H]3C)CC2)cc(F)c1C1=CCN([C@@H](C)c2cc3c(-n4ccc5c(c4=O)CCN5)ccnc3n2C)CC1` (stereo partly drawn) [Example 2g22, 3-((3-fluoro-4-((R)-4-((1-(3-fluoro-5-methyl-4-(1-((S)-1-(1-methyl-4-(4-oxo-1,2,3,4-tetrahydro-5H-pyrrolo[3,2-c]pyridin-5-yl)-1H-pyrrolo[2,3-b]pyridin-2-yl)ethyl)-1,2,3,6-tetrahydro-pyridin-4-yl)-benzoyl)piperidin-4-yl)meth-yl)-3-methylpiperazin-1-yl)-phenyl)amino)piperidine-2,6-dione]: 3.3 nM.

For the compound `CNc1ccn(-c2ccnc3c2cc(CN2CC=C(c4c(C)cc(C(=O)N5CCC(CN6CCN(c7ccc(N[C@@H]8CCC(=O)NC8=O)cc7F)CC6)CC5)cc4F)CC2)n3C)c(=O)c1` (single isomer, unassigned) [Example 2g56], the Emax was 70 to 80%. `CNc1ccn(-c2ccnc3c2cc([C@H](C)N2CC=C(c4c(F)cc(C(=O)N5CCC(CN6CCN(c7ccc(N[C@H]8CCC(=O)NC8=O)cc7F)CC6)CC5)cc4F)CC2)n3C)c(=O)c1` (single isomer, unassigned) [Example 2g106]: the DC50 stood at 7.66 nM. With `Cc1cc(C(=O)N2CCC(CN3CCN(c4ccc(NC5CCC(=O)NC5=O)cc4F)CC3)CC2)cc(F)c1C1CCN(Cc2cc3c(-n4ccc5c(c4=O)CCN5)ccnc3n2C)CC1` (centres unmarked) [Example 2g36, 3-((3-fluoro-4-(4-((1-(3-fluoro-5-methyl-4-(1-((1-methyl-4-(4-oxo-1,2,3,4-tetrahydro-5H-pyrrolo[3,2-c]pyridin-5-yl)-1H-pyrrolo[2,3-b]pyridin-2-yl)methyl)piperi-din-4-yl)benzoyl)piperidin-4-yl)methyl)piperazin-1-yl)-phenyl)amino)piperidine-2,6-dione], the DC50 came to 35.7 nM.

The record behind these values is patent publication US20250320205A1, “STAT6 DEGRADERS” (Gilead Sciences, Inc., priority 2024, published 2025).
